According to ChEMBL document CHEMBL3885881, “DrugMatrix”:

Species: Rattus norvegicus
Assay: DrugMatrix - Regimen: Daily Repeat
Assay type: toxicity, organism-based, Sprague-Dawley
Set-up: regimen Daily Repeat, gender Male, age 6-8 weeks
Details: in vivo, po, route oral GAVAGE, vehicle .5 % CMC; for ABSOLUTE BASOPHIL / ABSOLUTE EOSINOPHIL / ABSOLUTE LYMPHOCYTE / ABSOLUTE MONOCYTE / ABSOLUTE SEGMENTED NEUTROPHIL / BASOPHIL / EOSINOPHIL / ERYTHROCYTE COUNT / HEMATOCRIT / HEMOGLOBIN / LEUKOCYTE COUNT / LYMPHOCYTE / MEAN CORPUSCULAR HEMOGLOBIN / MEAN CORPUSCULAR HEMOGLOBIN CONCENTRATION / MEAN CORPUSCULAR VOLUME / MONOCYTE / NEUTROPHIL / NUCLEATED RED BLOOD CELLS / PLATELET COUNT: tissue Blood; for ALANINE AMINOTRANSFERASE / ALBUMIN / ALKALINE PHOSPHATASE / ASPARTATE AMINOTRANSFERASE / BLOOD UREA NITROGEN / CARBON DIOXIDE / CHLORIDE / CHOLESTEROL / CREATINE PHOSPHOKINASE / CREATININE / GLUCOSE / LACTATE DEHYDROGENASE / LIPASE / PHOSPHORUS / POTASSIUM / SODIUM / TOTAL BILIRUBIN / TOTAL PROTEIN / URIC ACID: tissue Plasma
[1] = 0 mg/kg, 72 h, dose level Control, time 3 day
[2] = 0 mg/kg, 120 h, dose level Control, time 5 day
[3] = 1 mg/kg, 72 h, dose level Low, time 3 day

In the case of `CCOc1nc2cccc(C(=O)O)c2n1Cc1ccc(-c2ccccc2-c2nnn[nH]2)cc1`, the “ABSOLUTE BASOPHIL” value [1] is reported as 0 CELLS/uL, the “ABSOLUTE EOSINOPHIL” value [1] is reported as 35.67 CELLS/uL and the “ABSOLUTE LYMPHOCYTE” value [1] is reported as 9125.17 CELLS/uL. For the same compound, the “ABSOLUTE MONOCYTE” value [1] was 50.17 CELLS/uL, the “ABSOLUTE SEGMENTED NEUTROPHIL” value [1] was 722.33 CELLS/uL and the BASOPHIL [1] was 0%. For the same compound, the EOSINOPHIL [1] was 0.33%, the “ERYTHROCYTE COUNT” value [1] was 5.35 x10E6/uL and the HEMATOCRIT [1] was 33.58%. The HEMOGLOBIN [1] was 13.35 G/DL, the “LEUKOCYTE COUNT” value [1] was 9.93 x10E3/uL and the LYMPHOCYTE [1] was 91.67%. For the same compound, the “MEAN CORPUSCULAR HEMOGLOBIN” value [1] was 25 pg, the “MEAN CORPUSCULAR HEMOGLOBIN CONCENTRATION” value [1] was 39.8 G/DL and the “MEAN CORPUSCULAR VOLUME” value [1] was 62.77 fL. The MONOCYTE [1] was 0.67%, the NEUTROPHIL [1] was 7.33% and the “NUCLEATED RED BLOOD CELLS” value [1] was 0 /100WBC. For the same compound, the “PLATELET COUNT” value [1] was 866.17 x10E3/uL, the “ALANINE AMINOTRANSFERASE” value [1] was 57.17 u/L and the ALBUMIN [1] was 4.22 G/DL. The “ALKALINE PHOSPHATASE” value [1] was 391 u/L, the “ASPARTATE AMINOTRANSFERASE” value [1] was 95.17 u/L and the “BLOOD UREA NITROGEN” value [1] was 13.67 mg/dL. For the same compound, the “CARBON DIOXIDE” value [1] was 30 mmol/L, the CHLORIDE [1] was 102.5 MEQ/L and the CHOLESTEROL [1] was 72 mg/dL. For the same compound, the “CREATINE PHOSPHOKINASE” value [1] was 485.67 u/L, the CREATININE [1] was 0.27 mg/dL and the GLUCOSE [1] was 152 mg/dL. The “LACTATE DEHYDROGENASE” value [1] was 372.67 u/L, the LIPASE [1] was 9.83 u/L and the PHOSPHORUS [1] was 12.47 mg/dL. The POTASSIUM [1] was 6.81 MEQ/L, the SODIUM [1] was 144.1 MEQ/L and the “TOTAL BILIRUBIN” value [1] was 0.23 mg/dL. For the same compound, the “TOTAL PROTEIN” value [1] was 5.93 G/DL, the “URIC ACID” value [1] was 1.9 mg/dL and the “ABSOLUTE BASOPHIL” value [2] was 0 CELLS/uL. For the same compound, the “ABSOLUTE EOSINOPHIL” value [2] was 67.33 CELLS/uL, the “ABSOLUTE LYMPHOCYTE” value [2] was 11419.17 CELLS/uL and the “ABSOLUTE MONOCYTE” value [2] was 203.17 CELLS/uL. For the same compound, the “ABSOLUTE SEGMENTED NEUTROPHIL” value [2] was 1327 CELLS/uL, the BASOPHIL [2] was 0% and the EOSINOPHIL [2] was 0.5%. For the same compound, the “ERYTHROCYTE COUNT” value [2] was 5.65 x10E6/uL, the HEMATOCRIT [2] was 35.3% and the HEMOGLOBIN [2] was 13.98 G/DL. The “LEUKOCYTE COUNT” value [2] was 13.02 x10E3/uL, the LYMPHOCYTE [2] was 88% and the “MEAN CORPUSCULAR HEMOGLOBIN” value [2] was 24.78 pg. The “MEAN CORPUSCULAR HEMOGLOBIN CONCENTRATION” value [2] was 39.63 G/DL, the “MEAN CORPUSCULAR VOLUME” value [2] was 62.58 fL and the MONOCYTE [2] was 1.33%. For the same compound, the NEUTROPHIL [2] was 10.17%, the “NUCLEATED RED BLOOD CELLS” value [2] was 0 /100WBC and the “PLATELET COUNT” value [2] was 1213.83 x10E3/uL. The “ALANINE AMINOTRANSFERASE” value [2] was 49.67 u/L, the ALBUMIN [2] was 4.28 G/DL and the “ALKALINE PHOSPHATASE” value [2] was 362.33 u/L. For the same compound, the “ASPARTATE AMINOTRANSFERASE” value [2] was 99 u/L, the “BLOOD UREA NITROGEN” value [2] was 20.67 mg/dL and the “CARBON DIOXIDE” value [2] was 26.33 mmol/L. For the same compound, the CHLORIDE [2] was 102 MEQ/L, the CHOLESTEROL [2] was 63.83 mg/dL and the “CREATINE PHOSPHOKINASE” value [2] was 481.83 u/L. The CREATININE [2] was 0.21 mg/dL, the GLUCOSE [2] was 158 mg/dL and the “LACTATE DEHYDROGENASE” value [2] was 656.33 u/L. It also gave an LIPASE [2] of 10.67 u/L, a PHOSPHORUS [2] of 12.27 mg/dL and a POTASSIUM [2] of 6.17 MEQ/L. For the same compound, the SODIUM [2] was 143.35 MEQ/L, the “TOTAL BILIRUBIN” value [2] was 0.17 mg/dL and the “TOTAL PROTEIN” value [2] was 6.13 G/DL. For the same compound, the “URIC ACID” value [2] was 1.48 mg/dL, the “ABSOLUTE BASOPHIL” value [3] was 0 CELLS/uL and the “ABSOLUTE EOSINOPHIL” value [3] was 0 CELLS/uL. The “ABSOLUTE LYMPHOCYTE” value [3] was 10188.33 CELLS/uL, the “ABSOLUTE MONOCYTE” value [3] was 75.33 CELLS/uL and the “ABSOLUTE SEGMENTED NEUTROPHIL” value [3] was 1069.67 CELLS/uL. The BASOPHIL [3] was 0%, the EOSINOPHIL [3] was 0% and the “ERYTHROCYTE COUNT” value [3] was 5.49 x10E6/uL. For the same compound, the HEMATOCRIT [3] was 34.4%, the HEMOGLOBIN [3] was 13.73 G/DL and the “LEUKOCYTE COUNT” value [3] was 11.33 x10E3/uL. For the same compound, the LYMPHOCYTE [3] was 89.67%, the “MEAN CORPUSCULAR HEMOGLOBIN” value [3] was 25.03 pg and the “MEAN CORPUSCULAR HEMOGLOBIN CONCENTRATION” value [3] was 39.93 G/DL. The “MEAN CORPUSCULAR VOLUME” value [3] was 62.7 fL, the MONOCYTE [3] was 0.67% and the NEUTROPHIL [3] was 9.67%. For the same compound, the “NUCLEATED RED BLOOD CELLS” value [3] was 0 /100WBC, the “PLATELET COUNT” value [3] was 1183.67 x10E3/uL and the “ALANINE AMINOTRANSFERASE” value [3] was 53.67 u/L. For the same compound, the ALBUMIN [3] was 4.23 G/DL, the “ALKALINE PHOSPHATASE” value [3] was 410.67 u/L and the “ASPARTATE AMINOTRANSFERASE” value [3] was 90 u/L. The “BLOOD UREA NITROGEN” value [3] was 16.67 mg/dL, the “CARBON DIOXIDE” value [3] was 29 mmol/L and the CHLORIDE [3] was 102.67 MEQ/L. For the same compound, the CHOLESTEROL [3] was 81 mg/dL, the “CREATINE PHOSPHOKINASE” value [3] was 371 u/L and the CREATININE [3] was 0.23 mg/dL. The GLUCOSE [3] was 155.67 mg/dL, the “LACTATE DEHYDROGENASE” value [3] was 328 u/L and the LIPASE [3] was 8 u/L. The PHOSPHORUS [3] was 12.13 mg/dL, the POTASSIUM [3] was 6.17 MEQ/L and the SODIUM [3] was 143.6 MEQ/L. For the same compound, the “TOTAL BILIRUBIN” value [3] was 0.2 mg/dL, the “TOTAL PROTEIN” value [3] was 5.9 G/DL and the “URIC ACID” value [3] was 1.6 mg/dL.
